Laboratory results: patent publication US9532990B2 (Zhejiang DTRM Biopharma Co. Ltd., priority 2014, dated 2017)
pIC50: −log10 of the molar value.

The molecules below were run against BTK wild type (Homo sapiens (Human), UniProt Q06187) (assay: Inhibition assay of BTK kinase activity (HTRF)). Details: all compounds with IC50 of less 10 nM; read-out: IC50 (BTK).
Chain of BTK wild type (Q06187 whole entry): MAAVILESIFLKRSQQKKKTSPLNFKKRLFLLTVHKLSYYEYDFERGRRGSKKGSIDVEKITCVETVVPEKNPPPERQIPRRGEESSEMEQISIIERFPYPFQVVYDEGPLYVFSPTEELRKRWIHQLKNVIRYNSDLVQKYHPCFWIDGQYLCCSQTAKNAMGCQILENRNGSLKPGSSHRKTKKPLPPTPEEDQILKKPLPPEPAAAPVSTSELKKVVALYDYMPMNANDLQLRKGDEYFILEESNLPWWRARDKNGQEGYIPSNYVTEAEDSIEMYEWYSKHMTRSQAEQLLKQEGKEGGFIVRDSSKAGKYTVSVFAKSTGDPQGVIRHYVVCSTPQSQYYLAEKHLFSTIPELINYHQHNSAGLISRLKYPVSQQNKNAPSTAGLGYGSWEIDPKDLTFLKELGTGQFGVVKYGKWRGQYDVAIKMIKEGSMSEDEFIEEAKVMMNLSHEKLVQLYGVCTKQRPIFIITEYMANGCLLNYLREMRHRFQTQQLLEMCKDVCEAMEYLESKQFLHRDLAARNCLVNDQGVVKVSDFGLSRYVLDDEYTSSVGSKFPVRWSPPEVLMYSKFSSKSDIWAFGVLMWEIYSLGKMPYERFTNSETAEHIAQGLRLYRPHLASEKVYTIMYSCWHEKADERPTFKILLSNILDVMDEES
Assay type: biochemical
Method: Inhibition Assay of BTK Kinase Activity:
The enzyme reaction mixture of BTK wild type standard HTRF assay contained 1 nM BTK wild type, 1 μM biotin-TK1 peptide, and 30 μM ATP in a buffer. The enzyme reaction were carried out at room temperature for 60 minutes. […] The plates were incubated at room temperature for 60 minutes and then read in the Envision plate reader.
In the case of COC(=O)NC(=O)/C=C\C(=O)N1CCCC(n2nc(-c3ccc(Oc4c(F)c(F)cc(F)c4F)cc3F)c3c(N)ncnc32)C1 (centres unmarked) [Compound 47, (Z)-methyl 4-(3-(4-amino-3-(2-fluoro-4-(2,3,5,6-tetrafluorophenoxy)phenyl)-1H-pyrazolo[3,4-d]pyrimidin-1-yl)piperidin-1-yl)-4-oxobut-2-enoylcarbamate], the pIC50 was greater than 8.00. In the case of Nc1ncnc2c1c(-c1ccc(Oc3c(F)c(F)cc(F)c3F)cc1F)nn2C1CCCN(C(=O)CCl)C1 (centres unmarked) [Compound 61, 1-(3-(4-amino-3-(2-fluoro-4-(2,3,5,6-tetrafluorophenoxy)phenyl)-1H-pyrazolo[3,4-d]pyrimidin-1-yl)piperidin-1-yl)-2-chloroethanone], the pIC50 was greater than 8.00.

Same assay, conditions: read-out: BTK IC50
C=CC(=O)NC1CCC(Cn2nc(-c3ccc(Oc4c(F)c(F)cc(F)c4F)cc3F)c3c(N)ncnc32)C1 (centres unmarked) [Compound 32, N-(3-((4-amino-3-(2-fluoro-4-(2,3,5,6-tetrafluorophenoxy)phenyl)-1H-pyrazolo[3,4-d]pyrimidin-1-yl)methyl)cyclopentyl)acrylamide] showed a pIC50 of 5.14. With C=CC(=O)N1CCC[C@H](n2nc(-c3ccc(Oc4c(F)c(F)cc(F)c4F)cc3F)c3c(N)ncnc32)C1 [Compound 34, 1-((S)-3-(4-amino-3-(2-fluoro-4-(2,3,5,6-tetrafluorophenoxy)phenyl)-1H-pyrazolo[3,4-d]pyrimidin-1-yl)piperidin-1-yl)prop-2-en-1-one] the pIC50 was 7.64. Molecule Nc1ncnc2c1c(-c1ccc(Oc3c(F)c(F)cc(F)c3F)cc1F)nn2C1CCCC(N2C(=O)C=CC2=O)C1 (centres unmarked) [Compound 36, 1-(3-(4-amino-3-(2-fluoro-4-(2,3,5,6-tetrafluorophenoxy)phenyl)-1H-pyrazolo[3,4-d]pyrimidin-1-yl)cyclohexyl)-1H-pyrrole-2,5-dione] has a pIC50 of 6.23. Molecule Nc1ncnc2c1c(-c1ccc(Oc3c(F)c(F)cc(F)c3F)cc1F)nn2[C@H]1CC[C@H](N2C(=O)C=CC2=O)C1 [Compound 37, 1-((1 S,3S)-3-(4-amino-3-(2-fluoro-4-(2,3,5,6-tetrafluorophenoxy)phenyl)-1H-pyrazolo[3,4-d]pyrimidin-1-yl)cyclopentyl)-1H-pyrrole-2,5-dione] has a pIC50 of 7.00. Work on Nc1ncnc2c1c(-c1ccc(Oc3c(F)c(F)cc(F)c3F)cc1F)nn2CCCN1C(=O)C=CC1=O [Compound 38, 1-(3-(4-amino-3-(2-fluoro-4-(2,3,5,6-tetrafluorophenoxy)phenyl)-1H-pyrazolo[3,4-d]pyrimidin-1-yl)propyl)-1H-pyrrole-2,5-dione] yielded a pIC50 of 6.42. Molecule Nc1ncnc2c1c(-c1ccc(Oc3c(F)c(F)cc(F)c3F)cc1F)nn2C1CCC(N2C(=O)CSC2=O)CC1 (centres unmarked) [Compound 40, 3-(4-(4-amino-3-(2-fluoro-4-(2,3,5,6-tetrafluorophenoxy)phenyl)-1H-pyrazolo[3,4-d]pyrimidin-1-yl)cyclohexyl)thiazolidine-2,4-dione] has a pIC50 of 5.79. Molecule NC(=O)/C=C/C(=O)N1CCCC(n2nc(-c3ccc(Oc4c(F)c(F)cc(F)c4F)cc3F)c3c(N)ncnc32)C1 (centres unmarked) [Compound 41, (E)-4-(3-(4-amino-3-(2-fluoro-4-(2,3,5,6-tetrafluorophenoxy)phenyl)-1H-pyrazolo[3,4-d]pyrimidin-1-yl)piperidin-1-yl)-4-oxobut-2-enamide] has a pIC50 of 7.77. For CNC(=O)/C=C/C(=O)N1CCCC(n2nc(-c3ccc(Oc4c(F)c(F)cc(F)c4F)cc3F)c3c(N)ncnc32)C1 (centres unmarked) [Compound 42, (E)-4-(3-(4-amino-3-(2-fluoro-4-(2,3,5,6-tetrafluorophenoxy)phenyl)-1H-pyrazolo[3,4-d]pyrimidin-1-yl)piperidin-1-yl)-N-methyl-4-oxobut-2-enamide], the pIC50 was 7.42. N=C(N)NC(=O)N1CCCC(n2nc(-c3ccc(Oc4c(F)c(F)cc(F)c4F)cc3F)c3c(N)ncnc32)C1 (centres unmarked) [Compound 43, N-[3-[4-amino-3-[2-fluoro-4-(2,3,5,6-trifluorophenoxy)phenyl]-1H-pyrazolo[3,4-d]pyrimidin-1-yl]piperidine-1-carbonyl] formamidine] was tested, and the pIC50 was 6.88. Work on CC(=O)CC(=O)N1CCCC(n2nc(-c3ccc(Oc4c(F)c(F)cc(F)c4F)cc3F)c3c(N)ncnc32)C1 (centres unmarked) [Compound 44, 1-(3-(4-amino-3-(2-fluoro-4-(2,3,5,6-tetrafluorophenoxy)phenyl)-1H-pyrazolo[3,4-d]pyrimidin-1-yl)piperidin-1-yl)butane-1,3-dione] yielded a pIC50 of 6.43. In the case of COC(=O)NC(=O)/C=C\C(=O)N1CCCC(n2nc(-c3ccc(Oc4c(F)c(F)cc(F)c4F)cc3F)c3c(N)ncnc32)C1 (centres unmarked) [Compound 47, (Z)-methyl 4-(3-(4-amino-3-(2-fluoro-4-(2,3,5,6-tetrafluorophenoxy)phenyl)-1H-pyrazolo[3,4-d]pyrimidin-1-yl)piperidin-1-yl)-4-oxobut-2-enoylcarbamate], the pIC50 was 8.22. For C/C=C(\C(=O)OC)C(=O)N1CCCC(n2nc(-c3ccc(Oc4c(F)c(F)cc(F)c4F)cc3F)c3c(N)ncnc32)C1 (centres unmarked) [Compound 48, (Z)-methyl 2-(3-(4-amino-3-(2-fluoro-4-(2,3,5,6-tetrafluorophenoxy)phenyl)-1H-pyrazolo[3,4-d]pyrimidin-1-yl)piperidine-1-carbonyl)but-2-enoate], the pIC50 was 6.02. For C=C(C#N)C(=O)N1CCCC(n2nc(-c3ccc(Oc4c(F)c(F)cc(F)c4F)cc3F)c3c(N)ncnc32)C1 (centres unmarked) [Compound 49, 2-(3-(4-amino-3-(2-fluoro-4-(2,3,5,6-tetrafluorophenoxy)phenyl)-1H-pyrazolo[3,4-d]pyrimidin-1-yl)piperidine-1-carbonyl)acrylonitrile], the pIC50 was 6.29. For C=C(CO)C(=O)N1CCCC(n2nc(-c3ccc(Oc4c(F)c(F)cc(F)c4F)cc3F)c3c(N)ncnc32)C1 (centres unmarked) [Compound 50, 1-(3-(4-amino-3-(2-fluoro-4-(2,3,5,6-tetrafluorophenoxy)phenyl)-1H-pyrazolo[3,4-d]pyrimidin-1-yl)piperidin-1-yl)-2-(hydroxymethyl)prop-2-en-1-one], the pIC50 was 7.06. In the case of Nc1ncnc2c1c(-c1ccc(Oc3c(F)c(F)cc(F)c3F)cc1F)nn2CCN1C(=O)C=CC1=O [Compound 51, 1-(2-(4-amino-3-(2-fluoro-4-(2,3,5,6-tetrafluorophenoxy)phenyl)-1H-pyrazolo[3,4-d]pyrimidin-1-yl)ethyl)-1H-pyrrole-2,5-dione], the pIC50 was 6.28. In the case of CNC(=O)N1CCCC(n2nc(-c3ccc(Oc4c(F)c(F)cc(F)c4F)cc3F)c3c(N)ncnc32)C1 (centres unmarked) [Compound 52, 3-(4-amino-3-(2-fluoro-4-(2,3,5,6-tetrafluorophenoxy)phenyl)-1H-pyrazolo[3,4-d]pyrimidin-1-yl)-N-methylpiperidine-1-carboxamide], the pIC50 was 7.22. Work on CN/C(=N\C#N)N1CCCC(n2nc(-c3ccc(Oc4c(F)c(F)cc(F)c4F)cc3F)c3c(N)ncnc32)C1 (centres unmarked) [Compound 54, 3-[4-amino-3-[2-fluoro-4-(2,3,5,6-fluorophenoxy)phenyl]-1H-pyrazolo[3,4-d]pyrimidine-1-yl]-N′-cyano-N-methyl-piperidine-1-carboxamidine] yielded a pIC50 of 5.79. Molecule CN/C(=C\[N+](=O)[O-])N1CCCC(n2nc(-c3ccc(Oc4c(F)c(F)cc(F)c4F)cc3F)c3c(N)ncnc32)C1 (centres unmarked) [Compound 55, 1-[3-[4-amino-3-[2-fluoro-4-(2,3,5,6-three-fluorophenoxy)phenyl]-1H-pyrazolo[3,4-d]pyrimidin-1-yl]-1-piperidinyl]-1-(methylamino)-2-nitro ethylene] has a pIC50 of 5.76. With CNC(=O)CN1CCCC(n2nc(-c3ccc(Oc4c(F)c(F)cc(F)c4F)cc3F)c3c(N)ncnc32)C1 (centres unmarked) [Compound 56, 2-(3-(4-amino-3-(2-fluoro-4-(2,3,5,6-tetrafluorophenoxy)phenyl)-1H-pyrazolo[3,4-d]pyrimidin-1-yl)piperidin-1-yl)-N-methylacetamide] the pIC50 was 6.44. CNC(=O)C(=O)N1CCCC(n2nc(-c3ccc(Oc4c(F)c(F)cc(F)c4F)cc3F)c3c(N)ncnc32)C1 (centres unmarked) [Compound 57, 2-(3-(4-amino-3-(2-fluoro-4-(2,3,5,6-tetrafluorophenoxy)phenyl)-1H-pyrazolo[3,4-d]pyrimidin-1-yl)piperidin-1-yl)-N-methyl-2-oxoacetamide] was tested, and the pIC50 was 6.16. With Nc1ncnc2c1c(-c1ccc(Oc3c(F)c(F)cc(F)c3F)cc1F)nn2[C@@H]1CCN(C(=O)CCCl)C1 [Compound 58, 1-((R)-3-(4-amino-3-(2-fluoro-4-(2,3,5,6-tetrafluorophenoxy)phenyl)-1H-pyrazolo[3,4-d]pyrimidin-1-yl)pyrrolidin-1-yl)-3-chloropropan-1-one] the pIC50 was 6.83. With Nc1ncnc2c1c(-c1ccc(Oc3c(F)c(F)cc(F)c3F)cc1F)nn2C1CCCN(C(=O)c2c[nH]cn2)C1 (centres unmarked) [Compound 59, (3-(4-amino-3-(2-fluoro-4-(2,3,5,6-tetrafluorophenoxy)phenyl)-1H-pyrazolo[3,4-d]pyrimidin-1-yl)piperidin-1-yl)(1H-imidazol-4-yl)methanone] the pIC50 was 6.76. For Nc1ncnc2c1c(-c1ccc(Oc3c(F)c(F)cc(F)c3F)cc1F)nn2C1CCCN(C(=O)c2cccnc2)C1 (centres unmarked) [Compound 60, (3-(4-amino-3-(2-fluoro-4-(2,3,5,6-tetrafluorophenoxy)phenyl)-1H-pyrazolo[3,4-d]pyrimidin-1-yl)piperidin-1-yl)(pyridin-3-yl)methanone], the pIC50 was 6.24. Work on Nc1ncnc2c1c(-c1ccc(Oc3c(F)c(F)cc(F)c3F)cc1F)nn2C1CCCN(C(=O)CCl)C1 (centres unmarked) [Compound 61, 1-(3-(4-amino-3-(2-fluoro-4-(2,3,5,6-tetrafluorophenoxy)phenyl)-1H-pyrazolo[3,4-d]pyrimidin-1-yl)piperidin-1-yl)-2-chloroethanone] yielded a pIC50 of 9.10. CN(C)CC(=O)N1CCCC(n2nc(-c3ccc(Oc4c(F)c(F)cc(F)c4F)cc3F)c3c(N)ncnc32)C1 (centres unmarked) [Compound 62, 1-(3-(4-amino-3-(2-fluoro-4-(2,3,5,6-tetrafluorophenoxy)phenyl)-1H-pyrazolo[3,4-d]pyrimidin-1-yl)piperidin-1-yl)-2-(dimethylamino)ethanone] was tested, and the pIC50 was 6.68. Nc1ncnc2c1c(-c1ccc(Oc3c(F)c(F)cc(F)c3F)cc1F)nn2C1CCCN(C(=O)C2CNC(=O)S2)C1 (centres unmarked) [Compound 63, 5-(3-(4-amino-3-(2-fluoro-4-(2,3,5,6-tetrafluorophenoxy)phenyl)-1H-pyrazolo[3,4-d]pyrimidin-1-yl)piperidine-1-carbonyl)thiazolidin-2-one] was tested, and the pIC50 was 6.34. With C=C(C(=O)N1CCCC(n2nc(-c3ccc(Oc4c(F)c(F)cc(F)c4F)cc3F)c3c(N)ncnc32)C1)C(F)(F)F (centres unmarked) [Compound 64, 1-(3-(4-amino-3-(2-fluoro-4-(2,3,5,6-tetrafluorophenoxy)phenyl)-1H-pyrazolo[3,4-d]pyrimidin-1-yl)piperidin-1-yl)-2-(trifluoromethyl)prop-2-en-1-one] the pIC50 was 8.22.
